{"source": "patent US5654451A", "about": "“Amino acids and peptides having modified C-terminals and modified N-terminals” (Magainin Pharmaceuticals Inc., priority 1995, dated 1997)", "assay_in_all_cases": "Antimicrobial assay (MIC, microtiter broth dilution)", "type_in_all_cases": "cell-based", "key": {"C. albicans": {"system": "C. albicans", "conditions": "for MIC C. albicans: Table I; for MIC Candida: Table VI", "experimental": "(§1) The procedure for the antimicrobial assay is based upon the guidelines of the National Committee for Clinical Laboratory Standards, Document M7-T2, Volume 8, No. 8, 1988.\n(§2) 1-5×10^5 CFUs/ml of either S. aureus ATCC 25923, E. coli ATCC 25922, P. aeruginosa ATCC 27853, or C. albicans were added to the wells in full strength Mueller Hinton broth (BBL 11443) from a mid-log culture. The inoculum is standardized spectrophotometrically at 600 nm and is verified by colony counts. The plates are incubated for 16-20 hours at 37° C., and the minimal inhibitory concentrations (MIC) for the compounds are determined. Minimal inhibitory concentration is defined as the lowest concentration of amino acid or peptide which produces a clear well in the microtiter plate."}, "S. aureus": {"system": "S. aureus", "conditions": "for MIC S. aureus: Table I, S. aureus ATCC 25923; for MIC Staph: Table VI", "experimental": "as §1, §2"}, "E. coli": {"system": "E. coli", "experimental": "as §1, §2"}, "P. aeruginosa": {"system": "P. aeruginosa", "conditions": "for MIC P aeruginosa: Table I, P. aeruginosa ATCC 27853; for MIC Psuedo: Table VI", "experimental": "as §1, §2"}}, "note": "Where “and” joins values, the source holds several entries; their conditions need not be identical. Equal values may be shown once.", "data": [{"compound": "CCCCCCCCN(CCCCCCCC)C(=O)C(Cc1ccccc1)N=C(N)N", "note": "(stereo not drawn) [Compound 32, N-α-amidino-phenylalanyl dioctylamide]", "values": [{"measurement": "MIC C. albicans", "setting": "C. albicans", "value": 2, "unit": "µg/mL"}, {"measurement": "MIC S. aureus", "setting": "S. aureus", "value": "1,2 μg/ml"}, {"measurement": "MIC E. coli", "setting": "E. coli; Table I, E. coli ATCC 25922", "value": 8, "unit": "µg/mL"}, {"measurement": "MIC P aeruginosa", "setting": "P. aeruginosa", "value": 128, "unit": "µg/mL"}]}, {"compound": "N-α-amidino phenylalanyl heptylamide [Compound 27]", "values": [{"measurement": "MIC C. albicans", "setting": "C. albicans", "value": 64, "unit": "µg/mL"}, {"measurement": "MIC S. aureus", "setting": "S. aureus", "value": 8, "unit": "µg/mL"}, {"measurement": "MIC E. coli", "setting": "E. coli; Table I, E. coli ATCC 25922", "value": 128, "unit": "µg/mL"}, {"measurement": "MIC P aeruginosa", "setting": "P. aeruginosa", "value": 128, "unit": "µg/mL"}]}, {"compound": "NC(N)=NCCCC(N)C(=O)Nc1ccc(C=Cc2ccc(NC(=O)C(N)CCCN=C(N)N)cc2)cc1", "note": "(centres unmarked) [Compound 49, 4,4'-[Di-Arg] diaminostilbene]", "values": [{"measurement": "MIC Candida", "setting": "C. albicans", "value": 64, "unit": "µg/mL"}, {"measurement": "MIC Staph", "setting": "S. aureus", "value": 8, "unit": "µg/mL"}, {"measurement": "MIC E. coli", "setting": "E. coli; Table VI", "value": 256, "unit": "µg/mL"}, {"measurement": "MIC Psuedo", "setting": "P. aeruginosa", "value": 128, "unit": "µg/mL"}]}, {"compound": "CCCCCCCCN(CCCCCCCC)C(=O)C(Cc1ccc(N)cc1)NC(=N)N", "note": "(stereo not drawn) [Compound 88, N^α -Amidino-p-amino-Phe-dioctylamide]", "values": [{"measurement": "MIC Candida", "setting": "C. albicans", "value": 0.5, "unit": "µg/mL"}, {"measurement": "MIC Staph", "setting": "S. aureus", "value": 1, "unit": "µg/mL"}, {"measurement": "MIC E. coli", "setting": "E. coli; Table VI", "value": 4, "unit": "µg/mL"}, {"measurement": "MIC Psuedo", "setting": "P. aeruginosa", "value": 32, "unit": "µg/mL"}]}, {"compound": "phenylalanyl heptylamide [Compound 26]", "values": [{"measurement": "MIC C. albicans", "setting": "C. albicans", "value": 128, "unit": "µg/mL"}, {"measurement": "MIC S. aureus", "setting": "S. aureus", "value": 256, "unit": "µg/mL"}, {"measurement": "MIC E. coli", "setting": "E. coli; Table I, E. coli ATCC 25922", "value": 128, "unit": "µg/mL"}, {"measurement": "MIC P aeruginosa", "setting": "P. aeruginosa", "value": "> 256", "unit": "µg/mL"}]}, {"compound": "γ-Guanidino-butyryl dioctylamide [Compound 71]", "values": [{"measurement": "MIC Candida", "setting": "C. albicans", "value": "< 0.25", "unit": "µg/mL"}, {"measurement": "MIC Staph", "setting": "S. aureus", "value": "0.5 to 1.0", "unit": "µg/mL"}, {"measurement": "MIC E. coli", "setting": "E. coli; Table VI", "value": 4, "unit": "µg/mL"}, {"measurement": "MIC Psuedo", "setting": "P. aeruginosa", "value": 32, "unit": "µg/mL"}]}, {"compound": "CCCCCCCCN(CCCCCCCC)C(=O)[C@H](Cc1ccccc1)NC(=O)CC(O)CNC(=N)N", "note": "(stereo partly drawn) [Compound 85, γ-Guanidino-β-hydroxy butyryl-Phe-dioctylamide]", "values": [{"measurement": "MIC Candida", "setting": "C. albicans", "value": 0.5, "unit": "µg/mL"}, {"measurement": "MIC Staph", "setting": "S. aureus", "value": 1, "unit": "µg/mL"}, {"measurement": "MIC E. coli", "setting": "E. coli; Table VI", "value": 32, "unit": "µg/mL"}, {"measurement": "MIC Psuedo", "setting": "P. aeruginosa", "value": 64, "unit": "µg/mL"}]}, {"compound": "N=C(N)NC(Cc1ccccc1)C(=O)Nc1ccc(C=Cc2ccc(NC(=O)C(Cc3ccccc3)NC(=N)N)cc2)cc1", "note": "(stereo not drawn) [Compound 47, 4,4'-[Di-(N^α -amidino-Phe)] diaminostilbene]", "values": [{"measurement": "MIC Candida", "setting": "C. albicans", "value": 256, "unit": "µg/mL"}, {"measurement": "MIC Staph", "setting": "S. aureus", "value": "05 to 10", "unit": "µg/mL"}, {"measurement": "MIC E. coli", "setting": "E. coli; Table VI", "value": 16, "unit": "µg/mL"}, {"measurement": "MIC Psuedo", "setting": "P. aeruginosa", "value": 32, "unit": "µg/mL"}]}, {"compound": "NC(N)=NCCCC(N)C(=O)NCCCCCCCCCCCCNC(=O)C(N)CCCN=C(N)N", "note": "(centres unmarked) [Compound 8, 1,12-[di-arginyl]diaminododecane]", "values": [{"measurement": "MIC C. albicans", "setting": "C. albicans", "value": "> 256", "unit": "µg/mL"}, {"measurement": "MIC S. aureus", "setting": "S. aureus", "value": 128, "unit": "µg/mL"}, {"measurement": "MIC E. coli", "setting": "E. coli; Table I, E. coli ATCC 25922", "value": "> 256", "unit": "µg/mL"}, {"measurement": "MIC P aeruginosa", "setting": "P. aeruginosa", "value": "> 256", "unit": "µg/mL"}]}, {"compound": "CCCCCCCCN(CCCCCCCC)C(=O)C(Cc1ccc2ccccc2c1)N=C(N)N", "note": "(stereo not drawn) [Compound 73, N^α -Amidino-β-Nal-dioctylamide]", "values": [{"measurement": "MIC Candida", "setting": "C. albicans", "value": 4, "unit": "µg/mL"}, {"measurement": "MIC Staph", "setting": "S. aureus", "value": 4, "unit": "µg/mL"}, {"measurement": "MIC E. coli", "setting": "E. coli; Table VI", "value": "> 256", "unit": "µg/mL"}, {"measurement": "MIC Psuedo", "setting": "P. aeruginosa", "value": "> 256", "unit": "µg/mL"}]}, {"compound": "N-α-amidino phenylalanyl tetradecylamide [Compound 33]", "values": [{"measurement": "MIC C. albicans", "setting": "C. albicans", "value": 16, "unit": "µg/mL"}, {"measurement": "MIC S. aureus", "setting": "S. aureus", "value": 8, "unit": "µg/mL"}, {"measurement": "MIC E. coli", "setting": "E. coli; Table I, E. coli ATCC 25922", "value": 128, "unit": "µg/mL"}, {"measurement": "MIC P aeruginosa", "setting": "P. aeruginosa", "value": "> 256", "unit": "µg/mL"}]}, {"compound": "N^α -Amidino-Phe-didecylamide [Compound 69]", "values": [{"measurement": "MIC Candida", "setting": "C. albicans", "value": "32 µg/mL and 64 µg/mL"}, {"measurement": "MIC E. coli", "setting": "E. coli; Table VI", "value": 16, "unit": "µg/mL"}, {"measurement": "MIC Psuedo", "setting": "P. aeruginosa", "value": "> 256 µg/mL and 256 µg/mL"}]}]}
